Results as given in US11253498B2, “Pharmaceutical composition for treatment of bone-related disease” (Nexyon Biotech Co., Ltd., priority 2017, dated 2022).

Legend:
preosteoblast cells [1] = experiment: Differentiation into osteoblasts, alizarin red S staining, cholesterol sulphate with or without Formula 2 (Example 2-2); assay type: cell-based, mice; conditions: FIG. 8
Protocol: The calvarium was removed from 1- to 3-day-old mice, and then subjected to enzymatic treatment with 1 mg/ml collagenase and 2 mg/ml dispase, to obtain preosteoblast cells. […] Then, differentiation into osteoblasts was induced. Replacement of the medium for differentiation was performed at 2- to 3-day intervals and differentiation was induced for a total of 14 to 21 days. Alizarin red S staining was used to evaluate the differentiation into osteoblasts, thereby quantitatively evaluate the degree of mineralized nodule production. The differentiated cells were fixed in 10% neutral formalin at 4° C. for 20 minutes, and then stained with 1.36% alizarin red solution (pH 4.1 to 4.3) for 40 minutes. The stained pattern was photographed or scanned. […] The degree of differentiation into osteoblasts is illustrated in FIG. 8.

[2] = tested on: ovary-extracted mouse model; experiment: Drug administration in ovary-extracted mouse model, femur micro-CT (Example 2-1); assay type: in vivo, C57BL/6 female mice; conditions: 5 mg/kg oral, once a day, five days a week, 4 weeks; vs OVX group receiving vehicle only; FIG. 7
Source text: Twenty-four 8-week-old C57BL/6 female mice were randomly divided into three groups, that is, control group (sham), ovary-extracted group (OVX), and OVX+Formula 2 group obtained by administering the compound of Formula 2 to the ovary-extracted group, each group consisting of 8 mice. All three groups were anesthetized using zoletil and rompun. Then, the OVX and OVX+Formula 2 groups were subjected to ovary extraction, and then sutured. The control group was subjected to ovary exposure, and then sutured without ovarian removal. Osteoporosis was induced for 4 weeks.
Starting from 4 weeks after ovarian extraction, on five days a week and once a day, the control group and the OVX group orally received 200 μl of vehicle (tetrahydrofuran:PEG-400:water=1:6:3 in volume), and the OVX+Formula 2 group orally received 200 μl obtained by mixing 5 mg/kg of compound of Formula 2 with a vehicle.
After oral administration for 4 weeks, all mice were sacrificed and the femur was extracted therefrom. The extracted femur was fixed in 10% neutral formalin. Photographs were taken at 7.1 μm voxel size using Skyscan 1173 micro-CT machine, and then bone density was analyzed by CTAn program. The results are illustrated in FIG. 7.

preosteoblast cells [3] = experiment: Osteoblast mineralized nodules, alizarin red staining (Example 1-2); assay type: cell-based, mice; conditions: vs negative control (0 μM); for amount of pigments colored in the nodules (differentiation of preosteoblast cells): alizarin red staining, 21 days, 0 to 50 μM, FIG. 1; for effect on the differentiation into osteoblasts (quantified, absorbance 570 nm): concentration series, FIG. 2 and FIG. 3
Protocol: In order to isolate preosteoblast cells, the calvarium was removed from 1- to 3-day-old mice, and then preosteoblast cells were obtained via a process in which the calvarium was subjected to treatment with 1 mg/ml collagenase and 2 mg/ml dispase.
Here, the medium for differentiation induction was replaced with fresh medium at 2- to 3-day intervals, and differentiation induction was performed for a total of 21 days. In order to identify the differentiation into osteoblasts, alizarin red staining was performed. Differentiation-induced cells were fixed by being incubated with 10% neutral formalin at 4° C. for 20 minutes, and then stained by being incubated with 1.36% alizarin red solution (pH 4.1 to 4.3) for 40 minutes. The results are illustrated in FIG. 1.
The results obtained by performing quantification with tauroursodeoxycholic acid, deoxycholic acid, or taurocholic acid are illustrated in FIG. 3.

| SMILES | amount of pigments colored in the nodules (differentiation of preosteoblast cells) (preosteoblast cells [3]) | effect on the differentiation into osteoblasts (quantified, absorbance 570 nm) (preosteoblast cells [3]) | further results |
| --- | --- | --- | --- |
| CC(C)CCC[C@@H](C)[C@H]1CC[C@H]2[C@@H]3CC=C4C[C@@H](OS(=O)(=O)O)CC[C@]4(C)[C@H]3CC[C@]12C [Formula 1, [(3S,8S,9S,10R,13R,14S,17R)-10,13-dimethyl-17-[(2R)-6-methylheptan-2-yl]-2,3,4,7,8,9,11,12,14,15,16,17-dodecahydro-1H-cyclopenta[a]phenanthren-3-yl] hydrogen sulphate] | – | – | differentiation into osteoblasts (preosteoblast cells [1]; 0 to 50 μM cholesterol sulphate alone): increases the differentiation into osteoblasts in a dose-dependent manner |
| NS(=O)(=O)Oc1ccc2c3c(c(=O)oc2c1)CCCCC3 [Formula 2, 6-oxo-6,7,8,9,10,11-hexahydrocyclohepta[c]chromen-3-yl sulfamate] | – | – | increase in the volume of trabecular bone [2]: 90%; differentiation into osteoblasts (preosteoblast cells [1]; 5 μM compound of Formula 2 alone): does not increase; differentiation into osteoblasts (preosteoblast cells [1]; 5 μM compound of Formula 2 in combination with 0 to 50 μM cholesterol sulphate): further enhances an effect of cholesterol sulphate |
| C[C@H](CCC(=O)O)[C@H]1CC[C@H]2[C@@H]3CC[C@@H]4C[C@H](O)CC[C@]4(C)[C@H]3C[C@H](O)[C@]12C [deoxycholic acid] | no effect | – | – |
| C[C@H](CCC(=O)NCCS(=O)(=O)O)[C@H]1CC[C@H]2[C@@H]3[C@H](O)C[C@@H]4C[C@H](O)CC[C@]4(C)[C@H]3C[C@H](O)[C@]12C [taurocholic acid] | no effect | no significant difference | – |
| C[C@H](CCC(=O)NCCS(=O)(=O)O)[C@H]1CC[C@H]2[C@@H]3[C@@H](O)C[C@@H]4C[C@H](O)CC[C@]4(C)[C@H]3CC[C@]12C [tauroursodeoxycholic acid] | no effect | no significant difference | – |
